Reference: PubChem BioAssay AID1259411 (Chemical Carcinogenesis Research Information System (CCRIS), 2018)
Active and inactive are the calls of the source. No rule for the calls is given here.

Test system: rodent carcinogenicity bioassays, tumor incidence
Test: CCRIS carcinogenicity studies
In short: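 NCI-built, expert-reviewed records of carcinogenicity and related test outcomes (mutagenicity, tumor promotion/inhibition) compiled from published and report sources, historical span 1985-2011, not updated.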

## Cc1ccccc1
Species: MOUSE, Strain/Sex: B6C3F1/FEMALE, Route: INHALATION, Dose: 0, 120, 600, 1200 PPM 6.5 HR/D 5 D/WK FOR 103 WK (STUDY DURATION: 104 WK), Dose: 0, 120, 600, 1200 PPM 6.5 HR/D 5 D/WK FOR 103 WK (STUDY DURATION: 104 WK)
  carcinogen call: inactive; negative
Species: MOUSE, Strain/Sex: B6C3F1/MALE, Route: INHALATION, Dose: 0, 120, 600, 1200 PPM 6.5 HR/D 5 D/WK FOR 103 WK (STUDY DURATION: 104 WK), Dose: 0, 120, 600, 1200 PPM 6.5 HR/D 5 D/WK FOR 103 WK (STUDY DURATION: 104 WK)
  carcinogen call: inactive; negative
Species: RAT, Strain/Sex: F344/FEMALE, Route: INHALATION, Dose: 0, 600, 1200 PPM 6.5 HR/D 5 D/WK FOR 103 WK (STUDY DURATION: 104 WK), Dose: 0, 600, 1200 PPM 6.5 HR/D 5 D/WK FOR 103 WK (STUDY DURATION: 104 WK)
  carcinogen call: inactive; negative
Species: RAT, Strain/Sex: F344/MALE, Route: INHALATION, Dose: 0, 600, 1200 PPM 6.5 HR/D 5 D/WK FOR 103 WK (STUDY DURATION: 104 WK), Dose: 0, 600, 1200 PPM 6.5 HR/D 5 D/WK FOR 103 WK (STUDY DURATION: 104 WK)
  carcinogen call: inactive; negative
Species: RAT, Strain/Sex: STRAIN-CD/MALE, Route: INTRAGASTRIC, Dose: 0, 500 MG/KG IN OLIVE OIL 1/D 4-5 D/WK FOR 104 WK (STUDY DURATION: 104 WK)
  carcinogen call: inactive; negative

## COC(=O)COc1ccc(Cl)cc1
Species: NEWT, Route: IMMERSION, Dose: 0, 100, 200, 400 PPM 4 D/WK FOR 12 MO (STUDY DURATION: 24 MO), Dose: 0, 100, 200, 400 PPM 4 D/WK FOR 12 MO (STUDY DURATION: 24 MO)
  carcinogen call: inactive; negative

## [Si]
Species: RAT, Strain/Sex: F344/FEMALE, Route: SUBCUTANEOUS IMPLANT, Dose: 10 X 20 X 0.3 MM SHEETS IMPLANTED INTO 2 SITES IN LATERAL ABDOMINAL REGION AND 1 SITE ON THE BACK (STUDY DURATION: 741 D, Tumor Site: Type of Lesion: IMPLANT SITE: MALIGNANT HISTIOCYTOMA
  carcinogen call: active; positive

## c1ccc2[nH]c(-c3cscn3)nc2c1
Species: MOUSE, Strain/Sex: CD-1/FEMALE, Route: ORAL, Dose: 0, 0.031, 0.125, 0.5% IN DIET FOR 78 WK (STUDY DURATION: 78 WK), Dose: 0, 0.031, 0.125, 0.5% IN DIET FOR 78 WK (STUDY DURATION: 78 WK)
  carcinogen call: inactive; negative
Species: MOUSE, Strain/Sex: CD-1/MALE, Route: ORAL, Dose: 0, 0.031, 0.125, 0.5% IN DIET FOR 78 WK (STUDY DURATION: 78 WK), Dose: 0, 0.031, 0.125, 0.5% IN DIET FOR 78 WK (STUDY DURATION: 78 WK)
  carcinogen call: inactive; negative
Species: MOUSE, Strain/Sex: ICR/MALE, Route: ORAL, Dose: 0, 0.8, 1.2, 1.6% IN DIET FOR 44 WK (STUDY DURATION: 44 WK), Dose: 0, 0.8, 1.2, 1.6% IN DIET FOR 44 WK (STUDY DURATION: 44 WK)
  carcinogen call: inactive; negative
Species: RAT, Strain/Sex: F344/FEMALE, Route: ORAL, Dose: 0, 0.05, 0.1, 0.2, 0.4% IN DIET FOR 104 WK (STUDY DURATION: 104 WK), Dose: 0, 0.05, 0.1, 0.2, 0.4% IN DIET FOR 104 WK (STUDY DURATION: 104 WK)
  carcinogen call: inactive; negative
Species: RAT, Strain/Sex: F344/MALE, Route: ORAL, Dose: 0, 0.05, 0.1, 0.2, 0.4% IN DIET FOR 104 WK (STUDY DURATION: 104 WK), Dose: 0, 0.05, 0.1, 0.2, 0.4% IN DIET FOR 104 WK (STUDY DURATION: 104 WK)
  carcinogen call: inactive; negative

## Cc1cnc(C2=NC(C)(C(C)C)C(=O)N2)c(C(=O)O)c1 (stereo not drawn)
Species: Mouse, Strain/Sex: CD-1[Crl(ICR)BR]/Female (55/Group), Route: Oral, Dose: 0, 1750, 3500, 7000 ppm of 96.9% imazapic in diet for 18 mo, study duration 18 mo, Dose: 0, 1750, 3500, 7000 ppm of 96.9% imazapic in diet for 18 mo, study duration 18 mo
  carcinogen call: inactive; negative
Species: Mouse, Strain/Sex: CD-1[Crl(ICR)BR]/Male (55/Group), Route: Oral, Dose: 0, 1750, 3500, 7000 ppm of 96.9% imazapic in diet for 18 mo, study duration 18 mo, Dose: 0, 1750, 3500, 7000 ppm of 96.9% imazapic in diet for 18 mo, study duration 18 mo
  carcinogen call: inactive; negative
Species: Rat, Strain/Sex: Crl:CD(SD)BR/Female (55/Group), Route: Oral, Dose: 0, 5000, 10,000, 20,000 ppm of 96.4% imazapic in diet for 24 mo, study duration 24 mo, Dose: 0, 5000, 10,000, 20,000 ppm of 96.4% imazapic in diet for 24 mo, study duration 24 mo
  carcinogen call: inactive; negative
Species: Rat, Strain/Sex: Crl:CD(SD)BR/Male (55/Group), Route: Oral, Dose: 0, 5000, 10,000, 20,000 ppm of 96.4% imazapic in diet for 24 mo, study duration 24 mo, Dose: 0, 5000, 10,000, 20,000 ppm of 96.4% imazapic in diet for 24 mo, study duration 24 mo
  carcinogen call: inactive; negative

## O=[N+]([O-])c1ccc(N=Nc2c(O)ccc3ccccc23)c([N+](=O)[O-])c1
Species: MOUSE, Strain/Sex: ICR/FEMALE, Route: DERMAL, Dose: 0, 1 MG IN 0.1 ML DISTILLED WATER 2/WK FOR A MEAN TOTAL DOSE OF 143.7 MG (STUDY DURATION: 18 MO)
  carcinogen call: inactive; negative
Species: MOUSE, Strain/Sex: ICR/MALE, Route: DERMAL, Dose: 0, 1 MG IN 0.1 ML DISTILLED WATER 2/WK FOR A MEAN TOTAL DOSE OF 143.7 MG (STUDY DURATION: 18 MO)
  carcinogen call: inactive; negative

## CC(C)OC(=O)Nc1cccc(Cl)c1
Species: Mouse, Strain/Sex: CD-1/Female (50/group), Route: Oral, Dose: 0, 100, 500, 1,000 mg/kg/day in diet for 18 mo, Dose: 0, 100, 500, 1,000 mg/kg/day in diet for 18 mo
  carcinogen call: inactive; negative (study details not given in source; purity 96.2%)
Species: Mouse, Strain/Sex: CD-1/Male (50/group), Route: Oral, Dose: 0, 100, 500, 1,000 mg/kg/day in diet for 18 mo, Dose: 0, 100, 500, 1,000 mg/kg/day in diet for 18 mo
  carcinogen call: inactive; negative (study details not given in source; purity 96.2%)
Species: Rat, Strain/Sex: Sprague-Dawley/Female (50/group), Route: Oral, Dose: 0, 30, 100, 500, 1,000 mg/kg/day in diet for 24 mo, Dose: 0, 30, 100, 500, 1,000 mg/kg/day in diet for 24 mo
  carcinogen call: inactive; negative (study details not given in source; purity 96.2%)
Species: Rat, Strain/Sex: Sprague-Dawley/Male (50/group), Route: Oral, Dose: 0, 30, 100, 500, 1,000 mg/kg/day in diet for 24 mo, Dose: 0, 30, 100, 500, 1,000 mg/kg/day in diet for 24 mo, Tumor Site: Type of Lesion: Testis: Interstitial cell tumors (1, 4, 2, 4, 9; Significant at highest dose)
  carcinogen call: active; positive (study details not given in source; purity 96.2%)

## C=C(C#N)C(=O)O
Species: RAT, Strain/Sex: F344/FEMALE, Route: SUBCUTANEOUS IMPLANT, Dose: 0.12 G INJECTED INTO 2 SITES ON THE LATERAL ABDOMEN, 2 SITES ON THE LATERAL CHEST REGION AND 1 SITE ON THE BACK (STUDY D, Tumor Site: Type of Lesion: IMPLANT SITE: MALIGNANT HISTIOCYTOMA
  carcinogen call: active; positive

## CCCCN(CC)c1c([N+](=O)[O-])cc(C(F)(F)F)cc1[N+](=O)[O-]
Species: Mouse, Strain/Sex: B6C3F1/Female, Route: Oral, Dose: 0, 0.005, 0.03, 0.15% in diet for 2 yrs in 2 replicates of 30 mice/sex/group, Dose: 0, 0.005, 0.03, 0.15% in diet for 2 yrs in 2 replicates of 30 mice/sex/group
  carcinogen call: inactive; negative; slight but not statistically elevated incidence of total neoplastic tu
Species: Mouse, Strain/Sex: B6C3F1/Male, Route: Oral, Dose: 0, 0.005, 0.03, 0.15% in diet for 2 yrs in 2 replicates of 30 mice/sex/group, Dose: 0, 0.005, 0.03, 0.15% in diet for 2 yrs in 2 replicates of 30 mice/sex/group
  carcinogen call: inactive; negative; slight but not statistically elevated incidence of total neoplastic t
Species: Rat, Strain/Sex: CDF (F344)CrlBR/Female (50/sex/group), Route: Oral, Dose: 0, 10, 100, 2500, 5000 ppm (about 0; 0.7; 6.8; 168; 331 mg/kg/day ) in diet for 104 wks, Dose: 0, 10, 100, 2500, 5000 ppm (about 0; 0.7; 6.8; 168; 331 mg/kg/day ) in diet for 104 wks, Tumor Site: Type of Lesion: Thyroid: thyroid follicular adenomas and carcinomas (0/50; 0/50; 1/50; 5/50; 4/50)
  carcinogen call: active; positive; ca dpr judged the study as showing possible adverse effects
Species: Rat, Strain/Sex: CDF (F344)CrlBR/Male (50/sex/group), Route: Oral, Dose: 0, 10, 100, 2500, 5000 ppm (about 0; 0.5; 5.4; 136; 275 mg/kg/day ) in diet for 104 wks, Dose: 0, 10, 100, 2500, 5000 ppm (about 0; 0.5; 5.4; 136; 275 mg/kg/day ) in diet for 104 wks, Tumor Site: Type of Lesion: Thyroid: thyroid follicular adenomas and carcinomas (1/50; 1/50; 7/50; 8/50) Liver: Hepatocellular tumors (primari
  carcinogen call: active; positive; ca dpr judged the study as showing possible adverse effects

## CC(C)(C)c1cc(O)c(C(C)(C)C)cc1O
Species: HAMSTER, Strain/Sex: SYRIAN/MALE, Route: ORAL, Dose: 1% IN DIET FOR 24 WK (STUDY DURATION: 24 WK), Tumor Site: Type of Lesion: FORESTOMACH: PAPILLOMA
  carcinogen call: active; positive
